In PubChem BioAssay AID691 (PCMD, 2007):
Values after ≈ are worked out from the molar mass of the structure shown. Inconclusive results are not listed. Active and inactive are the calls of the source. No rule for the calls is given here.

Test system: Zebrafish larvae lipid metabolism, fluorescent lipid gallbladder/intestine
Experiment: larval zebrafish lipid processing modulation – whole organism, confirmation, fluorescent lipid, gallbladder/intestine, dose response (AID 691)

For `CC1(C)Cc2c(C#N)c(NCc3ccco3)nc(-c3ccco3)c2CO1`, the MIC was > 100 µM (inactive).

`c1ccc(-c2nnc3sc(Cc4cccs4)nn23)cc1` was tested, and the MIC was 18.8 µM (≈ 5.59 µg/mL).

`CCCC1CC(=O)OC1(C)C(=O)CSc1n[nH]c(-c2ccccc2)n1` (stereo not given) was tested, and the MIC was > 100 µM (inactive).

In the case of `CC1(c2cnc(Nc3ccccc3)s2)CCC(=O)O1` (stereo not given), the MIC is reported as > 100 µM (inactive).

With `CC1Oc2ccccc2N(CC(=O)NCc2cccs2)C1=O` (stereo not given) the MIC was > 100 µM (inactive).

With `Cc1nnc(NC(=O)C2CCCO2)s1` (stereo not given) the MIC was > 100 µM (inactive).

For `Cc1ccc2[nH]c3c(c2c1)CN(C(=O)CN1CCCc2ccccc21)CC3`, the MIC was > 100 µM (inactive).

In the case of `Cc1c(N=Cc2c(O)n(C3CCCCC3)c(=O)[nH]c2=O)c(=O)n(-c2ccccc2)n1C`, the MIC is reported as > 100 µM (inactive).

`Cc1ccc(CNC(=O)c2cc3c(=O)n4ccccc4nc3n(Cc3ccco3)c2=N)cc1` gave an MIC of 62.5 µM (≈ 27.5 µg/mL).

With `CCOC(=O)CSc1nnc2n(Cc3ccccc3)c(=O)c3c4c(sc3n12)CCC4` the MIC was > 100 µM (inactive).

`CCOC(=O)CCc1c(C)c(C#N)c2[nH]c3ccccc3n2c1=O` was tested, and the MIC was > 100 µM (inactive).

For `CCN1CC2=C(OC(N)=C(C#N)C2c2ccccc2)/C(=C\c2ccccc2)C1` (stereo not given), the MIC was > 100 µM (inactive).

In the case of `N#CC1=C(SCC(=O)c2ccc(Cl)cc2)NC2=C(C(=O)CCC2)C1c1ccco1` (stereo not given), the MIC is reported as > 100 µM (inactive).

In the case of `COc1ccc(OC)c(Nc2nc(-c3cccs3)cs2)c1`, the MIC is reported as 56.2 µM (≈ 17.9 µg/mL).

With `CC(=O)Nc1nnc(S(N)(=O)=O)s1` the MIC was > 100 µM (inactive).

For `COc1cccc(-c2nnc3sc(-c4ccco4)nn23)c1`, the MIC was > 100 µM (inactive).

In the case of `Cn1c(C(=O)OC(C(=O)NC2CCCC2)c2cccnc2)cc2sccc21` (stereo not given), the MIC is reported as > 100 µM (inactive).

In the case of `COCCCN1C(=O)C(O)=C(C(C)=O)C1c1ccccn1` (stereo not given), the MIC is reported as > 100 µM (inactive).

`Cc1csc(NC(=O)Nc2cccc(Cl)c2)n1` was tested, and the MIC was > 100 µM (inactive).

With `N#Cc1ccc(CSc2nnc(-c3ccccn3)n2-c2ccccc2)cc1` the MIC was > 100 µM (inactive).

For `COC(=O)c1cc(Br)c(=O)n(CCc2ccc(F)cc2)c1`, the MIC was > 100 µM (inactive).

In the case of `Cc1c(N=Cc2c(O)n(CCc3ccc(F)cc3)c(=O)[nH]c2=O)c(=O)n(-c2ccccc2)n1C`, the MIC is reported as > 100 µM (inactive).

In the case of `CS(=O)(=O)Nc1ccc([N+](=O)[O-])cc1Oc1ccccc1`, the MIC is reported as > 100 µM (inactive).

For `CCN(CC)C(=O)c1sc2nc(-c3cccs3)cc(-c3cccs3)c2c1N`, the MIC was 12.5 µM (≈ 5.17 µg/mL).

Work on `c1coc(-c2nnc3sc(-c4cccs4)nn23)c1` yielded an MIC of 9.37 µM (≈ 2.57 µg/mL).

With `CNc1oc(-c2ccccc2Cl)nc1C#N` the MIC was > 100 µM (inactive).

In the case of `CCN(CC)c1ccc(C2Nc3cccc4cccc(c34)N2)c(O)c1`, the MIC is reported as > 100 µM (inactive).

`CN(C)[C@@H]1C(=O)C(C(N)=O)=C(O)[C@@]2(O)C(=O)C3=C(O)c4c(O)ccc(Cl)c4[C@@H](O)[C@H]3C[C@@H]12` was tested, and the MIC was > 100 µM (inactive).

In the case of `CCNC(=O)c1cc2c(=O)n3cccc(C)c3nc2n(CCc2ccccc2)c1=N`, the MIC is reported as > 100 µM (inactive).

`COc1ccccc1-c1nnc2sc(C3CCCCC3)nn12` was tested, and the MIC was > 100 µM (inactive).

For `COC(=O)C1=C(N)Oc2cc(C)oc(=O)c2C1c1ccncc1` (stereo not given), the MIC was > 100 µM (inactive).

`Cc1ccc2nc(C3CCN(CC(=O)N4CCCCCC4)CC3)[nH]c2c1` was tested, and the MIC was > 100 µM (inactive).

For `CCOC(=O)C1CCCN(c2nc3ccccc3nc2C(C#N)C(=O)OCCOC)C1` (stereo not given), the MIC was > 100 µM (inactive).

In the case of `N#CCSc1nc2c(c(=O)n1Cc1ccco1)C1(CCCC1)Cc1ccccc1-2`, the MIC is reported as 25 µM (≈ 10.1 µg/mL).

In the case of `COc1ccc2c(c1)c(C(=O)CN1CCOCC1)c(C)n2C`, the MIC is reported as > 100 µM (inactive).

For `CCCCOc1ccccc1C(=O)NCCCC(=O)O`, the MIC was > 100 µM (inactive).

With `C=CCn1c(N)c(C(=O)Nc2ccccc2)c2nc3ccccc3nc21` the MIC was > 100 µM (inactive).

`COC(=O)c1ccc(Cn2nnc3c(sc4nc(N5CCOCC5)c5c(c43)CCCC5)c2=O)o1` was tested, and the MIC was > 100 µM (inactive).

`N#Cc1c(NCCN)nc(NCc2ccccc2)c2c1CCN(Cc1ccccc1)C2` was tested, and the MIC was > 100 µM (inactive).

In the case of `Cc1cccc2c1NC(C)CC2C` (stereo not given), the MIC is reported as > 100 µM (inactive).

`CNc1ccccc1-c1nc2ccccc2n(C)c1=O` showed an MIC of 15.6 µM (≈ 4.15 µg/mL).

With `COc1ccc(C2CC(C(F)(F)F)n3ncc(C(=O)Nc4cccc(O)c4)c3N2)cc1OC` (stereo not given) the MIC was > 100 µM (inactive).

With `COc1ccc(C)cc1-n1nnnc1SC/C(O)=C(\C#N)c1nc2ccccc2[nH]1` the MIC was > 100 µM (inactive).

In the case of `O=C1c2ccccc2-c2onc3ccc(NCc4ccco4)c1c23`, the MIC is reported as 3.91 µM (≈ 1.24 µg/mL).

`c1ccc(CN2CCN(c3ncnc4c3[nH]c3ccccc34)CC2)cc1` gave an MIC of 31.3 µM (≈ 10.7 µg/mL).

For `Clc1ccc(OCc2nnc(SCCN3CCCCC3)n2Cc2ccco2)cc1`, the MIC was 75 µM (≈ 32.5 µg/mL).

`COC(=O)c1sccc1NC(=O)c1ccco1` was tested, and the MIC was > 100 µM (inactive).

In the case of `CCOC(=O)CSc1nc(N)c(C(=O)Nc2ccc(N(C)C)cc2)s1`, the MIC is reported as 25 µM (≈ 9.51 µg/mL).

For `CC(C)N=c1cc2n(-c3ccc(Cl)cc3)c3ccccc3nc-2cc1Nc1ccc(Cl)cc1`, the MIC was 6.25 µM (≈ 2.96 µg/mL).

With `OCCN1CCN(CCCN2c3ccccc3Sc3ccc(C(F)(F)F)cc32)CC1` the MIC was > 100 µM (inactive).
